According to US8658675B2, “Pyridin-4-yl derivatives” (Actelion Pharmaceuticals Ltd., priority 2009, dated 2014):

Columns and labels:
rat trachea rings [1] = assay: Measurement of isometric force development: rat trachea ring constriction; set-up: species or system Female Wistar rats; settings: compound at 10 μM; in % of the constriction induced by 50 mM KCl
rat trachea rings [2] = assay: as above; set-up: species or system Female Wistar rats; settings: for % trachea constriction at 1 μM: compound at 1 μM, in % of the constriction induced by 50 mM KCl; for potential to constrict rat trachea rings (comparison in words): compared to closest prior art analogues of WO 2008/029371 or to Example 2
Experimental: Animals were obtained from RCC Ltd (Füllinsdorf, Switzerland). Female Wistar rats were euthanized by exposure to CO2. The tracheae were excised and rings from the lower segments were prepared. Rings of trachea were suspended in tissue baths (10 mL) containing Krebs-Henseleit buffer of the following composition (mM): NaCl 115; KCl 4.7; MgSO4 1.2; KH2PO4 1.5; CaCl2 2.5; NaHCO3 25; glucose 10. Bathing solution was maintained at 37° C. and aerated with 95% O2/5% CO2 (pH 7.4). A resting force of 2 g (20 mN) was applied to the ring preparation, and changes in force generation were measured using an isometric force recorder (EMKA Technologies Inc, Paris, France). Viability of rings was assessed by exposure to a depolarizing concentration of KCl (50 mM). Contraction of trachea was expressed as a percentage of the response to KCl.
All compounds were prepared as stock solutions of 0.3 mM in pure DMSO. Compounds were added to the bath (10 mL) in a volume of 33 μL to give a final bath concentration of DMSO of 0.33%.
Contraction of trachea was measured for 15 out of 30 exemplified compounds.

circulating lymphocytes = assay: Assessment of in vivo efficacy: circulating lymphocytes after oral administration; set-up: species or system normotensive male Wistar rats; settings: Rattus norvegicus, Lymphocyte; 6 h after oral administration of 10 mg/kg, male Wistar rats, compared to vehicle group; read-out: Lymphocyte counts
Experimental: The efficacy of the compounds of Formula (I) is assessed by measuring the circulating lymphocytes after oral administration of 3 to 30 mg/kg of a compound of Formula (I) to normotensive male Wistar rats. The animals are housed in climate-controlled conditions with a 12 h-light/dark cycle, and have free access to normal rat chow and drinking water. Blood is collected before and 3, 6 and 24 h after drug administration. Full blood is subjected to hematology using Advia Hematology system (Bayer Diagnostics, Zurich, Switzerland).
All data are presented as mean±SEM. Statistical analyses are performed by analysis of variance (ANOVA) using Statistica (StatSoft) and the Student-Newman-Keuls procedure for multiple comparisons. The null hypothesis is rejected when p<0.05.
Lymphocyte counts 6 h after oral administration have been measured for 23 out of 30 exemplified compounds and are in the range of −42% to −80% with an average of −63%.

human S1P1 receptor = human S1P1 receptor (Homo sapiens, UniProt P21453); assay: GTPγS assay to determine EC50 values; assay type: biochemical; settings: membranes of CHO cells expressing recombinant human S1P1 receptor; 35S-GTPγS binding
Chain of human S1P1 receptor (P21453 whole entry): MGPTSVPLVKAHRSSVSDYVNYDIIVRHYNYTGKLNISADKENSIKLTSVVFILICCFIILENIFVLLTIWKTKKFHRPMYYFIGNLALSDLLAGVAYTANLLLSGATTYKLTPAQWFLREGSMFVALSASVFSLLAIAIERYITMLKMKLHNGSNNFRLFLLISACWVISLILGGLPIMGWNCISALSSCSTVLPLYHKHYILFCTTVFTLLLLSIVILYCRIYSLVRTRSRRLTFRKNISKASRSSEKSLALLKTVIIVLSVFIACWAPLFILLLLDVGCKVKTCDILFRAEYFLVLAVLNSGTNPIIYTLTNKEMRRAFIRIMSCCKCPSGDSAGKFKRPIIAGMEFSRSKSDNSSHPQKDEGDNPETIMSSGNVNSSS
Experimental: GTPγS binding assays are performed in 96 well microtiter plates (Nunc, 442587) in a final volume of 200 μl, using membrane preparations of CHO cells expressing recombinant human S1P1 receptor. Assay conditions are 20 mM Hepes (Fluka, 54461), 100 mM NaCl (Fluka, 71378), 5 mM MgCl2 (Fluka, 63064), 0.1% BSA (Calbiochem, 126609), 1 μM GDP (Sigma, G-7127), 2.5% DMSO (Fluka, 41644), […] ^35S-GTPγS (Amersham Biosciences, SJ1320). The pH is 7.4. Test compounds are dissolved and diluted in 100% DMSO and pre-incubated at room temperature for 30 min in 150 μl of the above assay buffer, in the absence of ^35S-GTPγS. After addition of 50 μl of ^35S-GTPγS, the assay is incubated for 1 h at rt. The assay is terminated by transfer of the reaction mixture to a Multiscreen plate (Millipore, MAHFC1H60) using a cell harvester from Packard Biosciences, and the plates are washed with ice-cold 10 mM Na2HPO4/NaH2PO4 (70%/30%), dried, sealed at the bottom and, after addition of 25 μl MicroScint20 (Packard Biosciences, order#6013621), sealed on the top. Membrane-bound ^35S-GTPγS is measured with a TopCount from Packard Biosciences.
EC50 is the concentration of agonist inducing 50% of the maximal specific ^35S-GTPγS binding. Specific binding is determined by subtracting non-specific binding from maximal binding. Maximal binding is the amount of cpm bound to the Multiscreen plate in the presence of 10 μM of S1P. Non-specific binding is the amount of binding in the absence of an agonist in the assay.
Agonistic activities (EC50 values) of all exemplified compounds have been measured.

Compound	% trachea constriction at 10 μM (rat trachea rings [1]) [%]	% trachea constriction at 1 μM (rat trachea rings [2]) [%]	EC50 (human S1P1 receptor) [nM]	change in vivo at 10 mg/kg (circulating lymphocytes) [%]	potential to constrict rat trachea rings (comparison in words) (rat trachea rings [2])
CCc1cc(-c2noc(-c3cc(OC)nc(C(CC)CC)c3)n2)cc(C)c1OC[C@@H](O)CNC(=O)CO [Example 6, N-[(2S)-3-(2-Ethyl-4-{5-[2-(1-ethyl-propyl)-6-methoxy-pyridin-4-yl]-[1,2,4]oxadiazol-3-yl}-6-methyl-phenoxy)-2-hydroxy-propyl]-2-hydroxy-acetamide]	100	<5	0.6	-59	significantly reduced potential to constrict rat trachea rings
COc1cc(-c2nc(-c3cc(C)c(NS(C)(=O)=O)c(Cl)c3)no2)cc(C2CCCC2)n1 [Example 12, N-{2-Chloro-4-[5-(2-cyclopentyl-6-methoxy-pyridin-4-yl)-[1,2,4]oxadiazol-3-yl]-6-methyl-phenyl}-methanesulfonamide]	<5	<5	0.3	-64	
CCc1cc(-c2noc(-c3cc(OC)nc(C(CC)CC)c3)n2)cc(C)c1NS(C)(=O)=O [Example 18, N-(2-Ethyl-4-{5-[2-(1-ethyl-propyl)-6-methoxy-pyridin-4-yl]-[1,2,4]oxadiazol-3-yl}-6-methyl-phenyl)-methanesulfonamide]	<5	<5	2.5	-42	
CCc1cc(-c2noc(-c3cc(OC)nc(C4CCCC4)c3)n2)cc(C)c1OC[C@H](O)CO [Example 3, (R)-3-{4-[5-(2-Cyclopentyl-6-methoxy-pyridin-4-yl)-[1,2,4]oxadiazol-3-yl]-2-ethyl-6-methyl-phenoxy}-propane-1,2-diol]		<5	1	-63	same low potential to constrict rat trachea rings
CCc1cc(-c2noc(-c3cc(CCC(C)C)nc(OC)c3)n2)cc(C)c1OC[C@@H](O)CNC(=O)CO [Example 16, N-[(2S)-3-(2-Ethyl-4-{5-[2-methoxy-6-(3-methyl-butyl)-pyridin-4-yl]-[1,2,4]oxadiazol-3-yl}-6-methyl-phenoxy)-2-hydroxy-propyl]-2-hydroxy-acetamide]		<5	0.7	-73	markedly reduced potential to constrict rat trachea rings

Further compounds by falling EC50 (human S1P1 receptor), results first:

% trachea constriction at 10 μM (rat trachea rings [1]) [%]	% trachea constriction at 1 μM (rat trachea rings [2]) [%]	EC50 (human S1P1 receptor) [nM]	Compound	change in vivo at 10 mg/kg (circulating lymphocytes) [%]	potential to constrict rat trachea rings (comparison in words) (rat trachea rings [2])
<5	<5	2.6	CCc1cc(-c2noc(-c3cc(OC)nc(C4CCCC4)c3)n2)cc(C)c1OC[C@@H](O)CN(C)C(=O)CO [Example 10, N-((2S)-3-{4-[5-(2-Cyclopentyl-6-methoxy-pyridin-4-yl)-[1,2,4]oxadiazol-3-yl]-2-ethyl-6-methyl-phenoxy}-2-hydroxy-propyl)-2-hydroxy-N-methyl-acetamide]	-68	
<5	<5	1	CCc1cc(-c2noc(-c3cc(OC)nc(C4CCCC4)c3)n2)cc(C)c1NS(C)(=O)=O [Example 19, N-{4-[5-(2-Cyclopentyl-6-methoxy-pyridin-4-yl)-[1,2,4]oxadiazol-3-yl]-2-ethyl-6-methyl-phenyl}-methanesulfonamide]	-61	
	50	0.6	CCc1cc(-c2noc(-c3cc(OC)nc(C4CCCC4)c3)n2)cc(C)c1OC[C@@H](O)CNC(=O)CO [Example 7, N-((2S)-3-{4-[5-(2-Cyclopentyl-6-methoxy-pyridin-4-yl)-[1,2,4]oxadiazol-3-yl]-2-ethyl-6-methyl-phenoxy}-2-hydroxy-propyl)-2-hydroxy-acetamide]	-65	markedly reduced potential to constrict rat trachea rings
